Data reported in patent US8173812B2, “Quinolines and their therapeutic use” (Pulmagen Therapeutics (Asthma) Limited, priority 2007, dated 2012).

Biological target: T1, CRTH2 receptor (Homo sapiens, UniProt Q9Y5Y4)
T1 sequence (Q9Y5Y4 1-395): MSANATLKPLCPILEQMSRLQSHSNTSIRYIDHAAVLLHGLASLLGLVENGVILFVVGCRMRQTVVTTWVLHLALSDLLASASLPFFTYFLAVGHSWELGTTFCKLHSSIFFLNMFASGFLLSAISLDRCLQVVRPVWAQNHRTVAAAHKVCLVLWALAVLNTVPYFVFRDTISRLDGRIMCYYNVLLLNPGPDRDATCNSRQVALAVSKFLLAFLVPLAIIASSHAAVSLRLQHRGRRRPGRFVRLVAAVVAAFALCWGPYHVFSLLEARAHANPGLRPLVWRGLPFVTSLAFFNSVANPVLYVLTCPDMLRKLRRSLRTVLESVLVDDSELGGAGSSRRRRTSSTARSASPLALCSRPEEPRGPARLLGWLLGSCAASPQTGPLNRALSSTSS
Test: CRTH2 radioligand binding assay ([3H]-PGD2 displacement, SPA)
Conditions: HEK cell membranes expressing the CRTH2 receptor, 1 nM [3H]-PGD2
Protocol: Radioligand Binding Assay
The receptor binding assay is performed in a final volume of 200 μL binding buffer [10 mM BES (pH 7.4), 1 mM EDTA, 10 mM manganese chloride, 0.01% BSA] and 1 nM [^3H]-PGD2 (Amersham Biosciences UK Ltd). Ligands are added in assay buffer containing a constant amount of DMSO (1% by volume). Total binding is determined using 1% by volume of DMSO in assay buffer and non-specific binding is determined using 10 μM of unlabeled PGD2 (Sigma). Human embryonic kidney (HEK) cell membranes (3.5 μg) expressing the CRTH2 receptor are incubated with 1.5 mg wheatgerm agglutinin SPA beads and 1 nM [^3H]-PGD2 (Amersham Biosciences UK Ltd) and the mixture incubated for 3 hours at room temperature. Bound [^3H]-PGD2 is detected using a Microbeta TRILUX liquid scintillation counter (Perkin Elmer). Compound IC50 value is determined using a 6-point dose response curve in duplicate with a semi-log compound dilution series. IC50 calculations are performed using Excel and XLfit (Microsoft), and this value is used to determine a Ki value for the test compound using the Cheng-Prusoff equation.

SMILES: CCc1nc2c(F)ccc(OCC(=O)O)c2c(OC(F)F)c1Cc1ccc(-n2cccn2)cc1 [Example 1, [4-difluoromethoxy-2-ethyl-8-fluoro-3-(4-pyrazol-1-ylbenzyl)quinolin-5-yloxy]acetic acid]
- IC50: 5.4 nM

SMILES: CCc1nc2c(F)ccc(OCC(=O)O)c2c(OC(F)F)c1Cc1ccc(-c2ncco2)cc1 [Example 2, [4-difluoromethoxy-2-ethyl-8-fluoro-3-(4-oxazol-2-ylbenzyl)quinolin-5-yloxy]acetic acid]
- IC50: 6.3 nM
